Laboratory results as given in ChEMBL document CHEMBL3585308, “Discovery and Modification of in Vivo Active Nrf2 Activators with 1,2,4-Oxadiazole Core: Hits Identification and Structure-Activity Relationship Study” (J Med Chem, 2015).
Converted amounts (≈) assume the structure as drawn. The source made the active and inactive calls. The calls are words filed in the database; no cut-off is given here.

Legend:
Mus musculus [1] = assay: Antiinflammatory activity in C57BL/6 mouse assessed as prevention of LPS-induced morphological changes in lung at 10 mg/kg/day pretreated for 48 hrs followed by LPS challenge measured after 5 hrs; format: functional, organism-based
Mus musculus [2] = assay: Antiinflammatory activity in C57BL/6 mouse assessed as reduction of LPS-induced IL-17 level in serum at 10 mg/kg/day pretreated for 48 hrs followed by LPS challenge measured after 5 hrs by ELISA; format: functional, organism-based
Mus musculus [3] = assay: Antiinflammatory activity in C57BL/6 mouse assessed as reduction of LPS-induced IL-6 level in serum at 10 mg/kg/day pretreated for 48 hrs followed by LPS challenge measured after 5 hrs by ELISA; format: functional, organism-based
Mus musculus [4] = assay: Antiinflammatory activity in C57BL/6 mouse assessed as reduction of LPS-induced IFN-gamma level in serum at 10 mg/kg/day pretreated for 48 hrs followed by LPS challenge measured after 5 hrs by ELISA; format: functional, organism-based
Mus musculus [5] = assay: Toxicity in C57BL/6 mouse assessed as effect on body weight at 10 mg/kg/day measured after 3 days; format: organism-based; conditions: in vivo, 72 h
Mus musculus [6] = assay: Antiinflammatory activity in C57BL/6 mouse assessed as reduction of LPS-induced TNF-alpha level in serum at 10 mg/kg/day pretreated for 48 hrs followed by LPS challenge measured after 5 hrs by ELISA; format: functional, organism-based
Mus musculus [7] = assay: Antiinflammatory activity in C57BL/6 mouse assessed as suppression of LPS-induced IL-6 expression in lung at 10 mg/kg/day pretreated for 48 hrs followed by LPS challenge measured after 5 hrs by immunohistochemical analysis; format: functional, organism-based
Mus musculus [8] = assay: Antiinflammatory activity in C57BL/6 mouse assessed as reduction of LPS-induced IL-12 level in serum at 10 mg/kg/day pretreated for 48 hrs followed by LPS challenge measured after 5 hrs by ELISA; format: functional, organism-based
Mus musculus [9] = assay: In vivo activation of Nrf2 in LPS-stimulated C57BL/6 mouse lung at 10 mg/kg/day pretreated for 48 hrs followed by LPS challenge measured after 5 hrs by DAPI staining-based laser scanning confocal microscopic analysis; format: functional, organism-based
[10] = target: T1, Nuclear factor erythroid 2-related factor 2 (Homo sapiens) (UniProt Q16236); assay: Induction of Nrf2 translocation from cytoplasm to nucleus in human HCT116 cells after 12 hrs by DyLight 488 and DAPI staining-based laser scanning confocal microscopic analysis; format: cell-based; conditions: HCT-116
T1 sequence (whole entry): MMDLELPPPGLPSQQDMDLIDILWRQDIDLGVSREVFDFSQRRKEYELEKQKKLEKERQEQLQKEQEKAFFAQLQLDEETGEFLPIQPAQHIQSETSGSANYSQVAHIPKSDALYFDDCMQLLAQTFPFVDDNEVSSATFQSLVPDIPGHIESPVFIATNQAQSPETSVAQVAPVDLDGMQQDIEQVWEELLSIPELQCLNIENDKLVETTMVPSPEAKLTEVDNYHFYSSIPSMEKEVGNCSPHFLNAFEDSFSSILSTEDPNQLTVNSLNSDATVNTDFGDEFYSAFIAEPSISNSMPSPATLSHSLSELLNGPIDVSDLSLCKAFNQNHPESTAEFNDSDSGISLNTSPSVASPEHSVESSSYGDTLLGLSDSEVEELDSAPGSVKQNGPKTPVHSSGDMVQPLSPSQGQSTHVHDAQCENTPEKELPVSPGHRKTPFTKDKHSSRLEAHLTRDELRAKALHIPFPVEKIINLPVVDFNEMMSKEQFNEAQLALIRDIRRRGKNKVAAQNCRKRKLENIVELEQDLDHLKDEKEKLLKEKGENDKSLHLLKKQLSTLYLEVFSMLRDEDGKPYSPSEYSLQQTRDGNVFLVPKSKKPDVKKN

Mus musculus [11] = assay: In vivo activation of Nrf2 in LPS-stimulated C57BL/6 mouse lung at 10 to 80 mg/kg/day, ip pretreated for 48 hrs followed by LPS challenge measured after 5 hrs by DAPI staining-based laser scanning confocal microscopic analysis; format: functional, organism-based
Mus musculus [12] = assay: Antiinflammatory activity in ip dosed C57BL/6 mouse assessed as inhibition of LPS-induced IL-6 expression in lung pretreated for 48 hrs followed by LPS challenge measured after 5 hrs by immunohistochemical analysis; format: functional, organism-based
[13] = target: T1, Nuclear factor erythroid 2-related factor 2 (Homo sapiens); assay: Activation of Nrf2 in human HepG2-ARE-C8 cells assessed as upregulation of ARE level after 12 hrs by luciferase reporter gene assay; format: cell-based
[14] = target: T1, Nuclear factor erythroid 2-related factor 2 (Homo sapiens); assay: Activation of Nrf2 in human HCT116 cells assessed as upregulation of GCLM gene expression at 20 uM after 8 hrs by qRT-PCR analysis in presence of siRNA relative to siRNA nontreated control; format: cell-based; conditions: HCT-116
HCT-116 = assay: Cytotoxicity against human HCT116 cells assessed as reduction of cell proliferation at 80 uM after 24 hrs by MTT assay; format: cell-based; conditions: hct-116, 24 h
[15] = target: T1, Nuclear factor erythroid 2-related factor 2 (Homo sapiens); assay: Activation of Nrf2 in human HCT116 cells measured at 4 hrs by qRT-PCR analysis; format: cell-based; conditions: HCT-116
[16] = Permeability of the compound at pH 7.4 by PAMPA; format: physicochemical; conditions: read-out: permeability
[17] = target: T1, Nuclear factor erythroid 2-related factor 2 (Homo sapiens); assay: Induction of Nrf2 translocation from cytoplasm to nucleus in human HCT116 cells at 20 uM after 4 hrs by Western blot analysis; format: cell-based; conditions: HCT-116
[18] = Dissociation constant, pKa of the compound by potentiometric titration method; format: physicochemical
[19] = target: T1, Nuclear factor erythroid 2-related factor 2 (Homo sapiens); assay: Induction of phosphorylated Nrf2 at S40 translocation from cytoplasm to nucleus in human HCT116 cells at 20 uM after 4 hrs by Western blot analysis; format: cell-based; conditions: HCT-116
[20] = target: T1, Nuclear factor erythroid 2-related factor 2 (Homo sapiens); assay: Activation of Nrf2 in human HCT116 cells assessed as upregulation of HO-1 gene expression at 20 uM after 8 hrs by qRT-PCR analysis in presence of siRNA relative to siRNA nontreated control; format: cell-based; conditions: HCT-116
[21] = target: T1, Nuclear factor erythroid 2-related factor 2 (Homo sapiens); assay: Activation of Nrf2 in human HCT116 cells assessed as upregulation of HO-1 gene expression measured at 4 hrs by qRT-PCR analysis; format: cell-based; conditions: HCT-116
[22] = target: T1, Nuclear factor erythroid 2-related factor 2 (Homo sapiens); assay: Activation of Nrf2 in human HCT116 cells assessed as upregulation of NQO1 expression after 8 hrs by Western blot analysis; format: cell-based; conditions: HCT-116
Mus musculus [23] = assay: Antiinflammatory activity in ip dosed C57BL/6 mouse assessed as reduction of LPS-induced IFN-gamma level in serum pretreated for 48 hrs followed by LPS challenge measured after 5 hrs by ELISA relative to LPS-treated control; format: functional, organism-based
[24] = target: T1, Nuclear factor erythroid 2-related factor 2 (Homo sapiens); assay: Activation of Nrf2 in human HCT116 cells assessed as upregulation of GCLM gene expression measured at 4 hrs by qRT-PCR analysis; format: cell-based; conditions: HCT-116
[25] = target: T1, Nuclear factor erythroid 2-related factor 2 (Homo sapiens); assay: Induction of Nrf2 phosphorylation at S40 in cytoplasm of human HCT116 cells at 20 uM after 4 hrs by Western blot analysis; format: cell-based; conditions: HCT-116
[26] = target: T1, Nuclear factor erythroid 2-related factor 2 (Homo sapiens); assay: Activation of Nrf2 in human HCT116 cells assessed as upregulation of NQO1 gene expression measured at 4 hrs by qRT-PCR analysis; format: cell-based; conditions: HCT-116
[27] = target: T1, Nuclear factor erythroid 2-related factor 2 (Homo sapiens); assay: Activation of Nrf2 in human HCT116 cells assessed as upregulation of HO-1 expression after 8 hrs by Western blot analysis; format: cell-based; conditions: HCT-116
Mus musculus [28] = assay: Antiinflammatory activity in ip dosed C57BL/6 mouse assessed as reduction of LPS-induced IL-12 level in serum pretreated for 48 hrs followed by LPS challenge measured after 5 hrs by ELISA relative to LPS-treated control; format: functional, organism-based
[29] = Lipophilicity, log D of the compound at pH 7.4 by potentiometric titration method; format: physicochemical; conditions: buffer
Mus musculus [30] = assay: In vivo activation of Nrf2 in LPS-stimulated ip dosed C57BL/6 mouse lung pretreated for 48 hrs followed by LPS challenge measured after 5 hrs by Western blot analysis; format: functional, organism-based
[31] = target: T1, Nuclear factor erythroid 2-related factor 2 (Homo sapiens); assay: Activation of Nrf2 in human HCT116 cells assessed as upregulation of GCS expression at 10 uM after 1 hr by Western blot analysis; format: cell-based; conditions: HCT-116
Mus musculus [32] = assay: Toxicity in C57BL/6 mouse assessed as effect on body weight at 10 to 80 mg/kg/day, ip measured after 3 days; format: organism-based; conditions: in vivo, 72 h
Mus musculus [33] = assay: Antiinflammatory activity in ip dosed C57BL/6 mouse assessed as reduction of LPS-induced IL-6 level in serum pretreated for 48 hrs followed by LPS challenge measured after 5 hrs by ELISA relative to LPS-treated control; format: functional, organism-based
Mus musculus [34] = assay: Antiinflammatory activity in ip dosed C57BL/6 mouse assessed as reduction of LPS-induced TNF-alpha level in serum pretreated for 48 hrs followed by LPS challenge measured after 5 hrs by ELISA relative to LPS-treated control; format: functional, organism-based
Mus musculus [35] = assay: Antiinflammatory activity in ip dosed C57BL/6 mouse assessed as reduction of LPS-induced IL-17 level in serum pretreated for 48 hrs followed by LPS challenge measured after 5 hrs by ELISA relative to LPS-treated control; format: functional, organism-based
[36] = target: T1, Nuclear factor erythroid 2-related factor 2 (Homo sapiens); assay: Activation of Nrf2 in human HCT116 cells at 20 uM after 8 hrs by qRT-PCR analysis in presence of siRNA relative to siRNA nontreated control; format: cell-based; conditions: HCT-116
Mus musculus [37] = assay: Antiinflammatory activity in C57BL/6 mouse assessed as prevention of LPS-induced morphological changes in lung at 10 to 80 mg/kg/day, ip pretreated for 48 hrs followed by LPS challenge measured after 5 hrs; format: functional, organism-based
[38] = Intrinsic aqueous solubility of the compound by potentiometric titration method; format: physicochemical; conditions: read-out: Intrinsic_solubility
[39] = target: T1, Nuclear factor erythroid 2-related factor 2 (Homo sapiens); assay: Activation of Nrf2 in human HCT116 cells assessed as upregulation of NQO1 gene expression at 20 uM after 8 hrs by qRT-PCR analysis in presence of siRNA relative to siRNA nontreated control; format: cell-based; conditions: HCT-116

SMILES: C[C@@H]1C[C@H]2[C@@H]3CCC4=CC(=O)C=C[C@]4(C)[C@@]3(F)[C@@H](O)C[C@]2(C)[C@@]1(O)C(=O)CO [DEXAMETHASONE]
- Activity (Mus musculus [1]): Active
- Activity (Mus musculus [2]): Active
- Activity (Mus musculus [3]): Active
- Activity (Mus musculus [4]): Active
- Activity (Mus musculus [5]): Non-toxic
- Activity (Mus musculus [6]): Active
- Activity (Mus musculus [7]): Active
- Activity (Mus musculus [8]): Active
- Activity (Mus musculus [9]): Active

SMILES: Fc1ccc(-c2nc(-c3ccc4nc[nH]c4c3)no2)cc1
- Activity [10]: Dose-dependent effect
- Activity (Mus musculus [11]): Active
- inhibition (Mus musculus [12]): Dose-dependent effect
- Activity [13]: Dose-dependent effect
- Activity [14]: Active
- Activity (HCT-116): Non-toxic
- Activity [15]: Dose-dependent effect
- Papp [16]: 19.6 ×10⁻⁶ cm/s
- Activity [17]: Active
- pKa [18]: 3.57
- Activity [19]: Active
- Activity [20]: Active
- Activity [21]: Dose-dependent effect
- Activity [22]: Dose-dependent effect
- Activity (Mus musculus [23]): Dose-dependent effect
- Activity [24]: Dose-dependent effect
- Activity [25]: Active
- Activity [26]: Dose-dependent effect
- Activity [27]: Dose-dependent effect
- Activity (Mus musculus [28]): Dose-dependent effect
- logD [29]: 3.37
- Activity (Mus musculus [30]): Dose-dependent effect
- Activity [31]: Active
- Activity (Mus musculus [32]): Non-toxic
- Activity (Mus musculus [33]): Dose-dependent effect
- Activity (Mus musculus [34]): Dose-dependent effect
- Activity (Mus musculus [35]): Dose-dependent effect
- Activity [36]: Active
- Activity (Mus musculus [37]): Active
- solubility [38]: 66.9 µM (≈ 18.7 µg/mL)
- Activity [39]: Active
